Reference: US20250304576A1 (Cancer Research Technology Limited, priority 2022, published 2025)
Where two headings read alike, the source gives them in different places.

Columns and labels:
[1] = system: PC3M xenografts; test: In vivo assessment in nude mice bearing PC3M xenografts; details: once daily i.p. dose of 50 mg/kg, over 21 days
Procedure: Xenografts were established in nude mice by subcutaneous injection of 5×10^6 PC3M-Luc-C6 cells. After 8 days, mice bearing tumours of approximately 60 mm^3 in volume were randomised into 3 treatment groups of 8 mice in each. One group of mice received intraperitoneal injection (i.p.) of 50 mg/kg SU1433 once daily dissolved in a vehicle of 5% (v/v) DMSO, 5% (v/v) solutol HS15 and 15% (w/v) hydroxypropyl-p-cyclodextrin in water for injection (90%) for a total of 21 days. Another group received once daily i.p. injection of the vehicle (100 μL) alone whilst the last group received no treatment. To monitor potential toxicity, body weight was measured daily, and experimental animals were evaluated for signs of distress using standard guidelines. Mice whose xenografts reached 1,900 mm^3 were euthanised. Subcutaneous tumours were measured with calipers immediately before treatment and every 2 or 3 days thereafter. On the assumption of ellipsoidal geometry, diameter measurements were converted to an approximate volume by multiplying half the longest diameter by the square of the mean of the 2 shorter diameters. For every animal, relative tumour volume (volume at any time point divided by volume immediately before treatment) was plotted against time, and the area under the time-volume curves was determined by trapezoidal approximation. […]

[2] = system: MiaPaca-2 cells; test: Cell viability, alamarBlue assay, MiaPaca-2 cells; format: cell-based; details: treatment for 48 hours
Procedure: (§1) PC3, PC3M, LNCaP Al, cells were grown in RPMI 1640 media and PANC1 and MiaPac-2 cells were grown in Dulbecco's Modified Eagle's Media (DMEM) which was supplemented with 10% (v/v) Foetal Calf Serum (FCS) (Charcoal-stripped for LNCaP Als), L-glutamine ([…]) and penicillin/streptomycin (250 units/ml; 100 μg/ml). All cells were incubated in a humidified atmosphere at 37° C. and 5% (v/v) CO2. Cells were cultured as a monolayer in 10 ml media in […] vented flasks and grown until subculture was required.
(§2) Cell viability determination: Cells (1000 cells/100 μl) were plated into 96 well plates and incubated for 24 hours at 37° C. and 5% (v/v) CO2 before being treated with SU1433. After incubation with SU1433 for 48 h, cell viability was measured using the alamarBlue® Assay (Thermofisher, UK). The media was removed and replaced with a 1:10 media to alamar blue solution. After a 1 h incubation at 37° C. and 5% CO2, the fluorescence was measured at 530-560 nm excitation wavelength and 590 nm emission wavelength in a fluorescence plate reader. All treatment were measured in duplicate wells and repeated at least 3 times. The results represent the fractional survival of untreated controls±SD.

[3] = target: T1, IKBKB (IKKβ) (Homo sapiens, UniProt O14920); test: Z'-LYTE IKKβ assay (Life Technologies); format: biochemical
T1 construct: purchased Life Technologies (assay performed by the vendor)
T1 sequence (O14920 1-756): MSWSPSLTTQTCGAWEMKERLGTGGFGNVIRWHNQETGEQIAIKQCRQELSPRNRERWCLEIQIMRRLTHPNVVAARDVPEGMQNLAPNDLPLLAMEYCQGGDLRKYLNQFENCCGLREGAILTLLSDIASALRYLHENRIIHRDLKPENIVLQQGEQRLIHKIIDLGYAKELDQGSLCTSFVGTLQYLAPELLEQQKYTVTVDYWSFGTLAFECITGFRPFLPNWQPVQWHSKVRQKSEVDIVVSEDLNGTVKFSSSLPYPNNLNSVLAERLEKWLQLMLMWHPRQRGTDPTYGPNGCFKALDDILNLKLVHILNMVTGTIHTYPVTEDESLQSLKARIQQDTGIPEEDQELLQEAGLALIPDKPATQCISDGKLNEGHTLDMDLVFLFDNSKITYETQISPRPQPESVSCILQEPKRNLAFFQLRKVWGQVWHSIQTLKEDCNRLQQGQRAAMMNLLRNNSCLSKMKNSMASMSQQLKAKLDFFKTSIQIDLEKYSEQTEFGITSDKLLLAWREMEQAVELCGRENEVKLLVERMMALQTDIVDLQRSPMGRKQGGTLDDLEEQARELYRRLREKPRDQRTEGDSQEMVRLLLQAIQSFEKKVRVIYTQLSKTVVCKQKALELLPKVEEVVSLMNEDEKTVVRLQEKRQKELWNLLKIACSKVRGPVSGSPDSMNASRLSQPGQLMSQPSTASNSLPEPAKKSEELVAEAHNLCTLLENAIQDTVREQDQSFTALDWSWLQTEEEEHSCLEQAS
Procedure: IKKα and IKKβ inhibitory activity was determined using three different assays: a dissociation enhanced ligand fluorescent immunoassay (DELFIA) based on the protocol of HTScan™ IKKβ Kinase Assay (Cell Signaling Technology, USA); an Adapta IKKα assay (performed by Life Technologies); a Z′-LYTE™ IKKβ assay (performed by Life Technologies).
The reaction was performed in low volume NBS, black 384-well plates (Corning model 4514).
The test compounds were screened in 1% DMSO (final) in the well. For 10 point titrations, 3-fold serial dilutions were conducted from the starting concentration of 50 mM.
The 2× IKBKB (IKKβ)/Ser/Thr 05 mixture was prepared in 50 mM HEPES pH 7.5, 0.01% BRIJ-35, 10 mM MgCl2, 1 mM EGTA. The final 10 μL Kinase Reaction consisted of 0.62-4 ng IKBKB (IKKβ) and 2 μM Ser/Thr 05 in 50 mM HEPES pH 7.5, 0.01% BRIJ-35, 10 mM MgCl2, 1 mM EGTA.
5 μL of 2× Kinase reaction was incubated with 2.5 μL of ATP solution diluted to a 4× working concentration in Kinase Buffer (50 mM HEPES pH 7.5, 0.01% BRIJ-35, 10 mM MgCl2, 1 mM EGTA) in the presence of […] of 100× test compound in 100% DMSO and 2.4 μL of Kinase buffer.
The resulting kinase reaction was allowed to incubate for 1 hour at room temperature before 5 μL of a 1:64 dilution of Development Reagent B was added and the resulting Development Reaction was incubated for another hour at room temperature. Then the plate was read on a fluorescence plate reader and the data analysed.
A ratiometric method, which calculated the Emission Ratio of donor emission (i.e. coumarin) to acceptor emission (i.e. fluorescein) after excitation of the donor fluorophore at 400 nm, was used to quantitate reaction progress, as shown in the equation below.

[4] = system: PANC1 cells; test: Cell viability, alamarBlue assay, PANC1 cells; format: cell-based; details: treatment for 48 hours
Procedure: as §1, §2

[5] = system: LNCaP cells; test: Cell viability, alamarBlue assay, LNCaP cells; format: cell-based; details: treatment for 48 hours
Procedure: as §1, §2

[6] = system: PC3M cells; test: Cell viability, alamarBlue assay, PC3M cells; format: cell-based; details: treatment for 48 hours
Procedure: as §1, §2

IC50 ([3]; Life Technologies assay) [nM] | IC50 [3] [nM] | SMILES | also measured
2300 |  | CC(C)(C)C#Cc1cc(-c2ccnc(N)c2)cc2c(N)n[nH]c12 [Example 137, 5-(2-Aminopyridin-4-yl)-7-(3,3-dimethylbut-1-yn-1-yl)-1H-indazol-3-amine] | inhibition of tumour growth [1]: approximately 60%; viability of MiaPaca-2 cells [2]: reduced the viability; viability of PANC1 cells [4]: reduced the viability; viability of LNCaP cells [5]: reduced the viability; viability of PC3M cells [6]: reduced the viability
 | 28 | Nc1n[nH]c2ccc(-c3ccnc4[nH]c(CO)cc34)cc12 [Example 224] | 
 | 1140 | Nc1n[nH]c2c(C#CCCCN3CCCCC3)cc(-c3ccnc4[nH]ccc34)cc12 [Example 212, 7-(5-(Piperidin-1-yl)pent-1-yn-1-yl)-5-(1H-pyrrolo[2,3-b]pyridin-4-yl)-1H-indazol-3-amine] | 
 | 470 | Nc1n[nH]c2c(C#CC3CC3)cc(-c3ccnc4[nH]ccc34)cc12 [Example 202, 7-(Cyclopropylethynyl)-5-(1H-pyrrolo[2,3-b]pyridin-4-yl)-1H-indazol-3-amine] | 
 | 53 | Nc1n[nH]c2ccc(-c3ccnc4[nH]c(CC5CCNCC5)cc34)cc12 [Example 272, 5-(2-(Piperidin-4-ylmethyl)-1H-pyrrolo[2,3-b]pyridin-4-yl)-1H-indazol-3-amine] | 
206 |  | Nc1nccc(-c2ccc3[nH]nc(N)c3c2)c1C#CC1CCCC1 [Example 73, 5-(2-Amino-3-(cyclopentylethynyl)pyridine-4-yl)-1H-indazol-3-amine] | 
